Data from paper PMC10870435, “A novel complement C3 inhibitor CP40-KK protects against experimental pulmonary arterial hypertension via an inflammasome NLRP3 associated pathway” (Journal of Translational Medicine, 2024).
Bridge positions count the residues as written; N and C are the ends. Square brackets hold non-standard residues; d marks the D form. Peptide text beside a SMILES is read from it. Trp(1-Me) = Cn1cc(C[C@H](N)C(=O)O)c2ccccc21; NMeI = CC[C@H](C)[C@H](NC)C(=O)O; Sar = CNCC(=O)O

How the values were obtained:
NLRP3 inflammasome = assay: Lung homogenate western blot of NF-κB p65 / NLRP3 inflammasome pathway in PAH rats; assay type: in vivo, rat; details: lung homogenates, MCT + CP40-KK vs MCT, n = 6 per group
Experimental: In the current study, two animal experiments were conducted successively. 30 rats were randomly divided into two groups (control group and MCT group, n = 15 per group) in the first experiment. MCT group rats received a single intraperitoneally injection of MCT (40 mg/kg) on day 1 to induce PAH while control group rats received an equivoluminal saline injection intraperitoneally. For the second animal experiment, the rats were assigned into four groups (control group, MCT group, CP40-KK group, and MCT + CP40-KK group, n = 15 per group). The control group was given the same volume of saline subcutaneously while the CP40-KK group rats only received CP40-KK (2 mg/kg) by subcutaneous injection from day 15 to day 28 continuously. The rats in the MCT group and MCT + CP40-KK group were received a single intraperitoneally injection of MCT (40 mg/kg) on day 1 and subcutaneously injected with either an equal volume of saline or CP40-KK (2 mg/kg) at day 15 to day 28 continuously. The dose selection of MCT and CP40-KK in our study was established based on previous studies.
Proteins were collected from the fresh frozen-rat lung tissues using RIPA lysis buffer. Protein concentration was quantified using a BCA reagent. Equal amounts of protein were electrophoretically separated on 10% SDS polyacrylamide gel, transferred to PVDF membranes, and probed with desired primary antibodies overnight at 4 °C. Membranes were then washed with TBST and incubated with anti-mouse IgG (1:5000) or anti-rabbit IgG (1:5000) horseradish peroxidase conjugated antibodies as indicated. […] To compare and quantify levels of proteins, the density of each band was measured using Image J software. Equal loading for total cell or tissue lysates was determined by β-Actin western blot.
Proteins were collected from the fresh frozen-rat lung tissues using RIPA lysis buffer. Protein concentration was quantified using a BCA reagent. […] To compare and quantify levels of proteins, the density of each band was measured using Image J software. Equal loading for total cell or tissue lysates was determined by β-Actin western blot^3,4.

[1] = cited from earlier work
Text: The selective C3 inhibitor CP40 has been found therapeutically effective in various diseases, but has yet not been tested in the PAH model. In the current study, we applied the newly identified CP40 analog, CP40-KK, with two more lysine attached to the C terminus, in the MCT-induced PAH rat model.

complement C3 = details: cited from earlier work
rat C3 = assay: ELISA, direct binding of plasma C3 to coated peptide; details: peptide coated on ELISA plate, rat plasma dilutions, anti-C3 antibody, OD 450 nm
Experimental: CP40-KK and its control peptide were dissolved in coating buffer at different concentration and then added to wells of ELISA plate as designed. The coated plate was incubated at 4 °C overnight. Then the plate was incubated with plasma with the indicated dilution at 37 °C for 2 h. Next, the plate was incubated with the C3 antibody (1:2000, MP biomedicals, Irvine, CA, USA) at 37 °C for 2 h. Then the plate was washed for 3 times and incubated with corresponding HRP conjugated secondary antibodies (1:2000, Abcam, Cambridge, UK) at 37° for 1 h. Finally, TMB substrate was added to each well for indicated time at 37 °C and then the stop solution was added to stop the TMB reaction. OD values were measured at 450 nm using a microplate reader (Bio-tek, Vermont, USA). The coating buffer, wash buffer, TMB substrate, and stop solution were all bought from Boster Biological Technology (Wuhan, China).
CP40-KK and its control peptide were dissolved in coating buffer at different concentrations and then added to wells of ELISA plate as designed. The coated plate was incubated at 4°C overnight. After removing the coating buffer from the wells, the plate was washed using wash buffer 3 times. Then the plate was incubated with plasma with the indicated dilution at 37°C for 2h. […] OD values were measured at 450nm using a microplate reader (Bio-tek, Vermont, USA). […]

**Q.** For `CC[C@H](C)[C@H](NC(=O)[C@H](N)Cc1ccc(O)cc1)C(=O)N[C@H]1CSSC[C@@H](C(=O)N(C)[C@H](C(=O)N[C@@H](CCCCN)C(=O)N[C@@H](CCCCN)C(N)=O)[C@@H](C)CC)NC(=O)[C@H](CCCNC(=N)N)NC(=O)[C@H](Cc2c[nH]cn2)NC(=O)CN(C)C(=O)[C@H](Cc2c[nH]c3ccccc23)NC(=O)[C@H](CC(=O)O)NC(=O)[C@H](CCC(N)=O)NC(=O)[C@H](Cc2cn(C)c3ccccc23)NC(=O)[C@H](C(C)C)NC1=O` [CP40-KK] (H-[dY]ICV[Trp(1-Me)]QDW[Sar]HRC[NMeI]KK-NH2; disulfide 3-12 (inferred)), which “NF-κB subunit p65 phosphorylation” value (NLRP3 inflammasome) is on record?
**A.** significantly block

**Q.** And the NLRP3 inflammasome activation (NLRP3 inflammasome)?
**A.** significantly block

**Q.** And the “production of proinflammatory cytokines IL-1β and IL-18” value (NLRP3 inflammasome)?
**A.** reduced

**Q.** And the “improvement in solubility in comparison with parental peptide CP40” value ([1]; at physiological pH)?
**A.** > 200 fold

**Q.** And the “apparent clearance compared to CP40 (decreased)” value ([1]; non-human primates)?
**A.** ~2.6 fold

**Q.** And the “maximum concentration compared to CP40 (higher)” value ([1]; non-human primates)?
**A.** twofold

**Q.** What about the “terminal half-life compared to CP40 (higher)” value ([1]; non-human primates) of the same compound?
**A.** fivefold

**Q.** What about the “inhibitory potency relative to CP40” value (complement C3) of the same compound?
**A.** retaining its inhibitory potency

**Q.** What about the “direct binding of rat C3 and CP40-KK (OD450)” value (rat C3) of the same compound?
**A.** specific binding
